Here are results for 16 compounds from patent US20090221642A1, “MUSCARINIC RECEPTOR AGONISTS, COMPOSITIONS, METHODS OF TREATMENT THEREOF, AND PROCESSES FOR PREPARATION THEREOF-176” (AstraZeneca AB, priority 2008, published 2009).

Read-outs that look alike come from different tables or passages of the source. Bounds are passed on as bounds.

Assay [1] has as its target T1, cloned human M2 receptor (human Muscarinic receptor subtype 2) (Homo sapiens, UniProt P08172).
T1 construct: purchased Perkin-Elmer RBHM2M; host or cells: Chinese hamster ovary cells (CHO) membranes
T1 sequence (P08172 1-466): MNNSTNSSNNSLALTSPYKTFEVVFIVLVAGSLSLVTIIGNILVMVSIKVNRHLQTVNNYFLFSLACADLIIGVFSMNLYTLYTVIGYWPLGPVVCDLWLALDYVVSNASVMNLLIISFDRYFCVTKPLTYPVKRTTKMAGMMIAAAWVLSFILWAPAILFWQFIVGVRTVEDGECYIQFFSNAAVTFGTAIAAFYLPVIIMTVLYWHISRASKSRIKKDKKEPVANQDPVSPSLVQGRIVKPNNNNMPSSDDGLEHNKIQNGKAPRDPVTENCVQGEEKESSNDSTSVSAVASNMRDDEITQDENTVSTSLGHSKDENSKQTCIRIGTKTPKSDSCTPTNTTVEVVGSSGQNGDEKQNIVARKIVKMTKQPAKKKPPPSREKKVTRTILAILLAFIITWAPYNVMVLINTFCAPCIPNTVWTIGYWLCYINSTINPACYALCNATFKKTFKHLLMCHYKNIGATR
Nature of the assay: hM2 receptor GTPγS binding. The format is biochemical. As to conditions: CHO cell membranes expressing hM2, [35S]GTPγS binding. The method, boiled down: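 CHO-cell membranes expressing human M2 receptor, scintillation-bead [35S]GTPγS binding (0.4 nM) with 12.5 μM GDP, pH 7.4 Hepes buffer, 60 min at room temperature. Agonism: stimulation vs 30 μM acetylcholine maximum; antagonism: reversal of 2 μM acetylcholine stimulation. EC50/IC50/Emax from 10-point sigmoidal fits.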

Assay [2] concerns the target T2, cloned human M4 receptor (human Muscarinic receptor subtype 4) (Homo sapiens, UniProt P08173).
T2 construct: purchased Perkin-Elmer RBHM4M; host or cells: Chinese hamster ovary cells (CHO) membranes
T2 sequence (P08173 1-479): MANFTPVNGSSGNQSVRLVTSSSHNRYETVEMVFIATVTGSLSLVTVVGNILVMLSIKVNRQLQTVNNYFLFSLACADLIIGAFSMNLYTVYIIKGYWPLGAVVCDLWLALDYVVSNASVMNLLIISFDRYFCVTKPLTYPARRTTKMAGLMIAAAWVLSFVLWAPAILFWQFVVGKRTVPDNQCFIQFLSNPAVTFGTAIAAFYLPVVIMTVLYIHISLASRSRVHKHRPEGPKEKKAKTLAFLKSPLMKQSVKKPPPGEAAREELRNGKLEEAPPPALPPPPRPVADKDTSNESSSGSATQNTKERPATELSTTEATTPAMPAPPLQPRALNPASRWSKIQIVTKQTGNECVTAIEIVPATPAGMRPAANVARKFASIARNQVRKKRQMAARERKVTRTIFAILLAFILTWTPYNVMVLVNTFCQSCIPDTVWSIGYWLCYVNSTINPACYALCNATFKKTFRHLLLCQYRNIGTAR
Nature of the assay: hM4 receptor GTPγS binding. The format is biochemical. As to conditions: CHO cell membranes expressing hM4, [35S]GTPγS binding. The method, boiled down:
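Membranes from CHO cells expressing cloned human M4, with SPA beads, 20 µM GDP and 0.4 nM [35S]GTPγS in HEPES buffer pH 7.4, incubated 60 min at room temperature. Antagonism measured as reversal of 10 µM acetylcholine stimulation; 10-point, threefold dilution curves fitted sigmoidally to give EC50, IC50 and Emax.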

With `CCOC(=O)N1CCC(C)(N2CCC(N3C(=O)Cc4ccc(F)cc43)CC2)C1` (single isomer, unassigned) [Example 74, ethyl 3-(4-(6-fluoro-2-oxoindolin-1-yl)piperidin-1-yl)-3-methylpyrrolidine-1-carboxylate], the figures for the EC50 in assay [1] (read-out: hM2 EC50) and in assay [2] (read-out: hM4 EC50) were 1340 nM and 3600 nM, respectively.
As to `CCOC(=O)N1CCC(C)(N2CCC(N3C(=O)Cc4ccc(F)cc43)CC2)C1` (single isomer, unassigned) [Example 75, ethyl 3-(4-(6-fluoro-2-oxoindolin-1-yl)piperidin-1-yl)-3-methylpyrrolidine-1-carboxylate], the EC50 was 2620 nM in assay [1] (read-out: hM2 EC50) and greater than 18900 nM in assay [2] (read-out: hM4 EC50).
The corresponding values for `COC(=O)N1CCC(C)(N2CCC(N3C(=O)Cc4ccc(F)cc43)CC2)C1` (single isomer, unassigned) [Example 76, methyl 3-(4-(6-fluoro-2-oxoindolin-1-yl)piperidin-1-yl)-3-methylpyrrolidine-1-carboxylate] are 3500 nM and greater than 90000 nM.
Turning to `CCOC(=O)N1CCC(C)(N2CCC(N3C(=O)Cc4cc(F)ccc43)CC2)C1` (single isomer, unassigned) [Example 79, ethyl 3-(4-(5-fluoro-2-oxoindolin-1-yl)piperidin-1-yl)-3-methylpyrrolidine-1-carboxylate], the EC50 in assay [1] (read-out: hM2 EC50) is 1130 nM; in assay [2] (read-out: hM4 EC50), 4330 nM.
As for `CCOC(=O)N1CCC(C)(N2CCC(N3C(=O)Cc4cc(F)ccc43)CC2)C1` (single isomer, unassigned) [Example 80, ethyl 3-(4-(5-fluoro-2-oxoindolin-1-yl)piperidin-1-yl)-3-methylpyrrolidine-1-carboxylate], the values for the EC50 in assay [1] (read-out: hM2 EC50) and in assay [2] (read-out: hM4 EC50) were 3260 nM and greater than 21800 nM, respectively.
In the case of `CCOC(=O)N1CCC(C)(N2CCC(N3C(=O)Cc4cc(F)c(C)cc43)CC2)C1` (single isomer, unassigned) [Example 81, ethyl 3-(4-(5-fluoro-6-methyl-2-oxoindolin-1-yl)piperidin-1-yl)-3-methylpyrrolidine-1-carboxylate], the EC50 in assay [1] (read-out: hM2 EC50) came to 1670 nM; in assay [2] (read-out: hM4 EC50), 7070 nM.
The corresponding values for `CCOC(=O)N1CCC(C)(N2CCC(N3C(=O)Cc4cc(F)c(C)cc43)CC2)C1` (single isomer, unassigned) [Example 82, ethyl 3-(4-(5-fluoro-6-methyl-2-oxoindolin-1-yl)piperidin-1-yl)-3-methylpyrrolidine-1-carboxylate] are 270 nM and 937 nM.
For `COC(=O)N1CCC(C)(N2CCC(N3C(=O)Cc4cc(F)c(C)cc43)CC2)C1` (single isomer, unassigned) [Example 83, methyl 3-(4-(5-fluoro-6-methyl-2-oxoindolin-1-yl)piperidin-1-yl)-3-methylpyrrolidine-1-carboxylate], the EC50 turned out to be 2840 nM in assay [1] (hM2 EC50 (nM)) and 11300 nM in assay [2] (hM4 EC50 (nM)).
For `COC(=O)N1CCC(C)(N2CCC(N3C(=O)Cc4cc(F)c(C)cc43)CC2)C1` (single isomer, unassigned) [Example 84, methyl 3-(4-(5-fluoro-6-methyl-2-oxoindolin-1-yl)piperidin-1-yl)-3-methylpyrrolidine-1-carboxylate] the same measures were 684 nM and 2540 nM.
For `CCOC(=O)N1CCC(C)(N2CCC(n3c(=O)[nH]c4ccccc43)CC2)C1` (centres unmarked) [Example 1, ethyl 3-methyl-3-(4-(2-oxo-2,3-dihydro-1H-benzo[d]imidazol-1-yl)piperidin-1-yl)pyrrolidine-1-carboxylate], the results for the EC50 in assay [1] (read-out: hM2 EC50) and in assay [2] (read-out: hM4 EC50) were 498 nM and 1700 nM, respectively.
With `CCNC(=O)N1CCC(C)(N2CCC(n3c(=O)[nH]c4ccccc43)CC2)C1` (centres unmarked) [Example 5, N-ethyl-3-methyl-3-(4-(2-oxo-2,3-dihydro-1H-benzo[d]imidazol-1-yl)piperidin-1-yl)pyrrolidine-1-carboxamide], the EC50 in assay [1] (read-out: hM2 EC50) was 5130 nM; in assay [2] (read-out: hM4 EC50) it was greater than 16000 nM.
Consider `COC(=O)N1CCC(C)(N2CCC(n3c(=O)[nH]c4cc(F)ccc43)CC2)C1` (centres unmarked) [Example 8, methyl 3-(4-(5-fluoro-2-oxo-2,3-dihydro-1H-benzo[d]imidazol-1-yl)piperidin-1-yl)-3-methylpyrrolidine-1-carboxylate], for which the EC50 in assay [1] (read-out: hM2 EC50) was found to be 1280 nM; in assay [2] (read-out: hM4 EC50) it was 5210 nM.
On to `CC1(N2CCC(n3c(=O)[nH]c4cc(F)ccc43)CC2)CCN(C(=O)OCCF)C1` (centres unmarked) [Example 10, 2-fluoroethyl 3-(4-(5-fluoro-2-oxo-2,3-dihydro-1H-benzo[d]imidazol-1-yl)piperidin-1-yl)-3-methylpyrrolidine-1-carboxylate], for which the values for the EC50 in assay [1] (read-out: hM2 EC50) and in assay [2] (read-out: hM4 EC50) were 2140 nM and 5170 nM, respectively.
In the case of `C#CCOC(=O)N1CCC(C)(N2CCC(n3c(=O)[nH]c4cc(F)ccc43)CC2)C1` (centres unmarked) [Example 11, prop-2-ynyl 3-(4-(5-fluoro-2-oxo-2,3-dihydro-1H-benzo[d]imidazol-1-yl)piperidin-1-yl)-3-methylpyrrolidine-1-carboxylate], the EC50 in assay [1] (read-out: hM2 EC50) turned out to be 149 nM; in assay [2] (read-out: hM4 EC50), 714 nM.
Regarding `CCOC(=O)N1CCC(C)(N2CCC(n3c(=O)[nH]c4ccc(C)cc43)CC2)C1` (centres unmarked) [Example 16, ethyl 3-methyl-3-(4-(6-methyl-2-oxo-2,3-dihydro-1H-benzo[d]imidazol-1-yl)piperidin-1-yl)pyrrolidine-1-carboxylate], the EC50 was determined as 418 nM in assay [1] (read-out: hM2 EC50) and 1700 nM in assay [2] (read-out: hM4 EC50).
As for `COC(=O)N1CCC(C)(N2CCC(n3c(=O)[nH]c4ccc(C)cc43)CC2)C1` (centres unmarked) [Example 17, methyl 3-methyl-3-(4-(6-methyl-2-oxo-2,3-dihydro-1H-benzo[d]imidazol-1-yl)piperidin-1-yl)pyrrolidine-1-carboxylate], the values for the EC50 in assay [1] (read-out: hM2 EC50) and in assay [2] (read-out: hM4 EC50) were 709 nM and 3150 nM, respectively.
